# From the supplement of paper PMC11451515
# Tested on: NOMO1
# Assay: cell viability relative to DMSO control; higher = less cytotoxic
# Details: 48 h
# In short: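 In 1536-well plates, 5 μl of leukemia cells were seeded per well: 500 cells/well for NOMO1 or SEM and 1000 cells/well for P12-Ichikawa. Each line had first been adapted for at least four passages in each medium. Library compounds in DMSO were pin-dosed at 11 threefold concentrations between 47 μM and 0.79 nM, and CellTiter-Glo One luminescence was read after 48 h at 37°C. Viability is a per-plate percentage relative to DMSO wells, with cell-free wells as background.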
# [1] = HPLM + 10% dialyzed FBS, 0.000781 µM
# [2] = HPLM + 10% dialyzed FBS, 0.00234 µM
# [3] = HPLM + 10% dialyzed FBS, 0.00702 µM
# [4] = HPLM + 10% dialyzed FBS, 0.0211 µM
# [5] = HPLM + 10% dialyzed FBS, 0.0632 µM
# [6] = HPLM + 10% dialyzed FBS, 0.19 µM
# [7] = HPLM + 10% dialyzed FBS, 0.569 µM
# [8] = HPLM + 10% dialyzed FBS, 1.71 µM
# [9] = HPLM + 10% dialyzed FBS, 5.12 µM
# [10] = HPLM + 10% dialyzed FBS, 15.4 µM
# [11] = HPLM + 10% dialyzed FBS, 46.1 µM
# [12] = RPMI 5 mM glucose + 10% FBS, 0.000781 µM
# [13] = RPMI 5 mM glucose + 10% FBS, 0.00234 µM
# [14] = RPMI 5 mM glucose + 10% FBS, 0.00702 µM
# [15] = RPMI 5 mM glucose + 10% FBS, 0.0211 µM
# [16] = RPMI 5 mM glucose + 10% FBS, 0.0632 µM
# [17] = RPMI 5 mM glucose + 10% FBS, 0.19 µM
# [18] = RPMI 5 mM glucose + 10% FBS, 0.569 µM
# [19] = RPMI 5 mM glucose + 10% FBS, 1.71 µM
# [20] = RPMI 5 mM glucose + 10% FBS, 5.12 µM
# [21] = RPMI 5 mM glucose + 10% FBS, 15.4 µM
# [22] = RPMI 5 mM glucose + 10% FBS, 46.1 µM
# [23] = RPMI 5 mM glucose + 10% dialyzed FBS, 0.000781 µM
# [24] = RPMI 5 mM glucose + 10% dialyzed FBS, 0.00234 µM
# [25] = RPMI 5 mM glucose + 10% dialyzed FBS, 0.00702 µM
# [26] = RPMI 5 mM glucose + 10% dialyzed FBS, 0.0211 µM
# [27] = RPMI 5 mM glucose + 10% dialyzed FBS, 0.0632 µM
# [28] = RPMI 5 mM glucose + 10% dialyzed FBS, 0.19 µM
# [29] = RPMI 5 mM glucose + 10% dialyzed FBS, 0.569 µM
# [30] = RPMI 5 mM glucose + 10% dialyzed FBS, 1.71 µM
# [31] = RPMI 5 mM glucose + 10% dialyzed FBS, 5.12 µM
# [32] = RPMI 5 mM glucose + 10% dialyzed FBS, 15.4 µM
# [33] = RPMI 5 mM glucose + 10% dialyzed FBS, 46.1 µM
Compound,cell viability [1],cell viability [2],cell viability [3],cell viability [4],cell viability [5],cell viability [6],cell viability [7],cell viability [8],cell viability [9],cell viability [10],cell viability [11],cell viability [12],cell viability [13],cell viability [14],cell viability [15],cell viability [16],cell viability [17],cell viability [18],cell viability [19],cell viability [20],cell viability [21],cell viability [22],cell viability [23],cell viability [24],cell viability [25],cell viability [26],cell viability [27],cell viability [28],cell viability [29],cell viability [30],cell viability [31],cell viability [32],cell viability [33]
CC(C)(O)/C=C\C(=O)[C@](C)(O)[C@H]1[C@H](O)C[C@]2(C)[C@@H]3CC=C4[C@@H](C=C(O)C(=O)C4(C)C)[C@]3(C)C(=O)C[C@@]12C,96.2%,115%,126%,116%,111%,74.7%,18.8%,17.3%,14.5%,7.22%,11.9%,106%,102%,95.5%,122%,89.2%,63.4%,30.2%,18.8%,16.1%,9.22%,14.5%,101%,110%,108%,110%,99.8%,58.2%,22.1%,16%,18.7%,9.49%,12.2%
COC1=CC=C2CN(C)CC[C@@]34\C=C/[C@H](O)C[C@@H]3OC1=C24,–,–,–,–,–,–,–,–,–,–,–,128%,124%,120%,112%,124%,130%,118%,123%,126%,108%,104%,126%,121%,118%,119%,118%,129%,120%,115%,110%,108%,113%
NC(=O)Nc1cc(-c2cccc(F)c2)sc1C(=O)N[C@H]1CCCNC1,125%,102%,141%,107%,147%,92.1%,59.2%,42%,24.7%,26.9%,26.2%,–,–,–,–,–,–,–,–,–,–,–,121%,122%,136%,134%,136%,139%,81.7%,33.2%,24.4%,21.6%,23.4%
COC1=CC=C(C=C1O)C/2=C/C(=O)C3=C(O2)C=C(O[C@@H]4O[C@H](CO[C@@H]5O[C@@H](C)[C@H](O)[C@@H](O)[C@H]5O)[C@@H](O)[C@H](O)[C@H]4O)C=C3O,112%,118%,129%,126%,130%,142%,134%,117%,117%,129%,139%,112%,103%,110%,115%,130%,114%,126%,125%,126%,124%,114%,–,–,–,–,–,–,–,–,–,–,–
OCc1ccc(-c2ccc(-c3ccc(CO)s3)o2)s1,124%,121%,138%,147%,124%,114%,122%,107%,118%,108%,96.2%,–,–,–,–,–,–,–,–,–,–,–,–,–,–,–,–,–,–,–,–,–,–
C[C@]12CCC\3=C\4CCC(=O)\C=C4CC[C@H]3[C@@H]1CC[C@@]2(O)CC#N,123%,123%,138%,144%,143%,139%,138%,125%,158%,137%,168%,–,–,–,–,–,–,–,–,–,–,–,–,–,–,–,–,–,–,–,–,–,–
CC(NCCc1ccc(O)cc1)C(O)c1ccc(O)cc1 (stereo not drawn),124%,123%,121%,111%,124%,120%,127%,110%,118%,97.5%,80%,113%,106%,107%,113%,102%,96.2%,101%,104%,105%,94.8%,95%,93.4%,114%,109%,99.7%,110%,114%,102%,93.8%,91.3%,93.5%,77.3%
OCCn1cc(-c2cnc3nnn(Cc4ccc5ncccc5c4)c3n2)cn1,106%,104%,123%,110%,102%,118%,92.2%,103%,92.1%,89.7%,63.2%,99.4%,110%,112%,99.9%,93.2%,116%,110%,107%,102%,105%,96.5%,93.3%,105%,103%,112%,105%,91.7%,97.1%,103%,86.8%,80.6%,82.2%
COc1cccc2c1[C@]13CCN(CC4CC4)[C@H](C2)[C@]1(OC)CCC(=O)C3,89.7%,96.5%,127%,121%,118%,119%,116%,129%,122%,82.2%,111%,101%,111%,103%,124%,126%,117%,132%,125%,133%,110%,124%,106%,108%,106%,111%,110%,116%,109%,111%,105%,106%,105%
CC(C)Cc1ccc(C(C)C(=O)O)cc1 (stereo not drawn),84.6%,106%,96.7%,115%,95.6%,102%,90.6%,102%,82%,91.4%,89.7%,79.4%,93.9%,94.3%,87.3%,97.2%,83.9%,97.9%,86.7%,83.9%,86.1%,89.6%,85.6%,83%,77.8%,85.4%,72.7%,82.2%,76.5%,91.6%,81.9%,80.5%,82.1%
